# Data published in US5731334A, “Method for treating cancer using taxoid onium salt prodrugs” (priority 1995, dated 1998).
# “Also recorded” adds a separate entry of the source.
# Tests used:
# [1] = system: HT-29 colon carcinoma cells; assay: XTT dye binding cytotoxicity assay, HT-29; type: cell-based; conditions: Homo sapiens, HT-29, 72 h
# Protocol: (§1) All cell lines described herein were obtained from the ATCC and maintained in media formulations as recommended by the supplier. The cell lines were tested for mycoplasma contamination prior to incubation at 37° C. in 5% carbon dioxide. Normal human dermal fibroblasts, peripheral blood lymphoblasts and mammary epithelial cells were obtained from Clonogenic Cor., San Diego, Calif. and were maintained under the above incubation conditions in special media provided by the supplier.
# (§2) Antiproliferative activities of the onium salts were determined using the XTT dye binding assay. Cells were harvested with trypsin/EDTA (Irvine Scientific), washed, resuspended in the appropriate medium, and counted in a hemocytometer using Trypan Blue to determine viability. Then 10^4 cells/well were added to 96 well microtiter plates and incubated for 24 hours before addition of drug at concentrations in the range of 10^-4 to 10^-13 molar by direct addition from DMSO solutions. After 72 hours, XTT binding dye was added and incubation was continued for 4 hours. The inhibition of cell proliferation was quantified using a Molecular Devices Microplate Reader. The absorbance of XTT was measured at […]. The concentration of drug which inhibited growth of cells by 50% was calculated from duplicated determinations.
# [2] = Comparative toxicities (lethality) in mice
# [3] = system: Capan 1 pancreas cancer cells; assay: XTT dye binding cytotoxicity assay, Capan 1; type: cell-based; conditions: Homo sapiens, CAPAN-1, 72 h
# Protocol: as §1, §2
# [4] = system: Molt-4 T-cell leukemia cells; assay: XTT dye binding cytotoxicity assay, Molt-4; type: cell-based; conditions: Homo sapiens, MOLT-4, 72 h
# Protocol: as §1, §2
# [5] = system: OVCAR-3 ovarian carcinoma cells; assay: XTT dye binding cytotoxicity assay, OVCAR-3; type: cell-based; conditions: Homo sapiens, OVCAR-3, 72 h
# Protocol: as §1, §2
# [6] = cited from earlier work
# [7] = cited from earlier work; remark: listed apart in the source
# [8] = system: HMEC mammary epithelial cells; assay: XTT dye binding cytotoxicity assay, HMEC; type: cell-based; conditions: Homo sapiens, 72 h
# Protocol: as §1, §2
# human tumor xenografts = assay: In vivo antitumor effect (human tumor xenografts in nude mice)
# [9] = In vivo elimination in BALB/C mice; conditions: 24 hours after injection
# Protocol: C-2'-MPA-Taxol (1 mM in 0.9% saline solution, 400 μL) was injected along with tritiated taxol at 32000 cpm into normal BALB/C mice (4 mice each) housed in metabolic cages and the urine and feces were measured periodically in a scintillation counter using Achillea scintillation fluid.
# The antitumor activity of the onium salts of taxol were assessed in nude mice bearing tumors of human A-549 lung adenocarcinomas, Ovcar-3 ovarian carcinoma, and PC-3 prostate carcinoma cells. […] FIG. 5 illustrates antiproliferation results for 2'-MPA-3-thiophene-taxol (4) and 2' MPA taxol (2) for the Ovcar-3 human tumor xenograft. […] FIG. 6, summarizes the results for a PC-3, prostate tumor model study. Taxol was compared with both the 2'- and 7-substituted oxonium salts. […] Tritiated taxol and 2' MPA-taxol were used in drug elimination experiments in normal BALB/C mice. In both groups of mice of four animals each, only 4-5% of the administered radioactivity was measured in the combined urine and feces 24 hours after injection.
# U-2511 CNS cancer cells = assay: XTT dye binding cytotoxicity assay, U-2511; type: cell-based; conditions: Homo sapiens, 72 h
# Protocol: as §1, §2
# NHDF dermal fibroblast = assay: XTT dye binding cytotoxicity assay, NHDF; type: cell-based; conditions: Homo sapiens, 72 h
# Protocol: as §1, §2
# [10] = system: SIHA squamous carcinoma cells; assay: XTT dye binding cytotoxicity assay, SIHA; type: cell-based; conditions: Homo sapiens, SiHa, 72 h
# Protocol: as §1, §2
# [11] = Toxicity and survival in vivo (tumor bearing nude mice)
# [12] = system: M-24 metastatic melanoma cells; assay: XTT dye binding cytotoxicity assay, M-24; type: cell-based; conditions: Homo sapiens, M24, 72 h
# Protocol: as §1, §2
# [13] = system: A-549 lung carcinoma cells; assay: XTT dye binding cytotoxicity assay, A-549; type: cell-based; conditions: Homo sapiens, A549, 72 h
# Protocol: as §1, §2
# SK-Mel-28 melanoma cells = assay: XTT dye binding cytotoxicity assay, SK-Mel-28; type: cell-based; conditions: Homo sapiens, SK-MEL-28, 72 h
# Protocol: as §1, §2
# [14] = system: CHO Chinese hamster ovary cells; assay: XTT dye binding cytotoxicity assay, CHO; type: cell-based; conditions: Cricetulus griseus, 72 h
# Protocol: as §1, §2
# [15] = system: RPMI-7666 blood lymphoblasts; assay: XTT dye binding cytotoxicity assay, RPMI-7666; type: cell-based; conditions: Homo sapiens, 72 h
# Protocol: as §1, §2
# intact Molt-4 cells = assay: Competition binding of tritiated compounds to intact Molt-4 cells; parameters: species or system human; conditions: calculated from slopes of linear portions of curves in FIG. 3; read-out: binding constant
# Protocol: The competition by nonradioactive taxol or c-2'-MPA-taxol for the binding of 1×10^-9 M tritiated compounds by intact Molt-4 cells is illustrated in FIG. 3. Tritiated taxol (Moravek Corp.) was treated with 2-fluoropyridiunium tosylate according to the method of Nicolaou et al. to yield the C-2'-MPT-^3 H-taxol. (Angew. Chem., Int. Ed. 1994: vol. 34, pp. 1583-1587.) Six well plates were incubated with 10^6 Molt-4 cells in 50 mM phosphate buffered saline (PBS) or PRPMI media to which 10^-9 M of the radiolabeled taxol or taxol onium salt was added together with increasing concentrations of nonradiolabeled compound. After 30 minutes, the cells were centrifuged, washed with PBS and 1% SDS was added. […] Alternatively, the cells may be lysed by sonication.
# [16] = system: 786-0 renal cell carcinoma cells; assay: XTT dye binding cytotoxicity assay, 786-0; type: cell-based; conditions: Homo sapiens, 786-0, 72 h
# Protocol: as §1, §2
# L-1210 leukemia cells = assay: XTT dye binding cytotoxicity assay, L-1210; type: cell-based, mouse; conditions: Mus musculus, L1210, 72 h
# Protocol: as §1, §2
# [17] = system: HL-60 promyelocytic leukemia cells; assay: XTT dye binding cytotoxicity assay, HL-60; type: cell-based; conditions: Homo sapiens, HL-60, 72 h
# Protocol: as §1, §2
# [18] = system: PC-3 prostate carcinoma cells; assay: XTT dye binding cytotoxicity assay, PC-3; type: cell-based; conditions: Homo sapiens, 72 h
# Protocol: as §1, §2
# [19] = system: BT-549 breast carcinoma cells; assay: XTT dye binding cytotoxicity assay, BT-549; type: cell-based; conditions: Homo sapiens, BT-549, 72 h
# Protocol: as §1, §2
# [20] = Plasma stability and prodrug reversion (ethyl acetate extraction, HPLC)
# [21] = system: PC-3 prostate carcinoma tumor xenograft; assay: PC-3 prostate tumor xenograft in nude mice
# [22] = cited from earlier work; remark: listed apart in the source
# [23] = system: UCLA-P3 lung carcinoma cells; assay: XTT dye binding cytotoxicity assay, UCLA-P3; type: cell-based; conditions: Homo sapiens, UCLA P-3, 72 h
# Protocol: as §1, §2
# tubulin = assay: Tubulin polymerization-depolymerization (microtubule assembly-disassembly) assay; type: biochemical, calf; conditions: CaCl2; 10^-6 M drug; 37° C.; in words; listed as taxol
# [24] = system: SK-N-SH neuroblastoma cells; assay: XTT dye binding cytotoxicity assay, SK-N-SH; type: cell-based; conditions: Homo sapiens, 72 h
# Protocol: as §1, §2
smiles,measurement,setting,value
"CC(=O)O[C@H]1C(=O)[C@@]2(C)[C@H]([C@H](OC(=O)c3ccccc3)[C@]3(O)C[C@H](OC(=O)[C@H](O)[C@@H](NC(=O)c4ccccc4)c4ccccc4)C(C)=C1C3(C)C)[C@]1(OC(C)=O)CO[C@@H]1C[C@@H]2O [Compound 1, reference compound]",IC50,[1],1.16 nM
same,"50% lethality, equivalent dose","[2]; mice, four times on alternating days, approximately equivalent dose","1,120-1,260 mg/m^2"
same,LD50,"[2]; mouse, in vivo",16 to 18 mg/kg
same,IC50,[3],0.967 nM
same,IC50,[4],0.096 nM
same,IC50,[5],0.74 nM
same,solubility in aqueous media,[6],low solubility
same,dose-limiting toxicity,"[7]; pediatric patients, 24 hour i.v. infusion",neurotoxicity
same,dose at which dose-limiting toxicity occurred,"[7]; pediatric patients, neurotoxicity",420 mg/m^2
same,recommended phase II dose,[7]; pediatric population,350 mg/m^2 /d
same,IC50,[8],62 nM
same,in vivo antitumor efficacy in words,human tumor xenografts,"when taxol was administered at somewhat lower doses, its efficacy was significantly diminished"
same,administered radioactivity in the combined urine and feces,[9],4-5%
same,IC50,U-2511 CNS cancer cells,15.6 nM
same,IC50,NHDF dermal fibroblast,765 nM
same,IC50,[10],8.89 nM
same,Toxicity,"[11]; Table II, in vivo",high
same,% survival,[11]; at end of experiments,0-20%
same,in vivo tolerance / toxicity in words,[11]; nude mice,both visual toxicity and animal weight losses were observed
same,IC50,[12],0.018 nM
same,IC50,[13],5.79 nM
same,IC50,SK-Mel-28 melanoma cells,524 nM
same,IC50,[14],615 nM
same,IC50,[15],584 nM
same,Kd,intact Molt-4 cells,5 nM
same,IC50,[16],10.8 nM
same,IC50,L-1210 leukemia cells,3.24 nM
same,IC50,[17],0.061 nM
same,IC50,[18],1.01 nM
same,IC50,[19],0.066 nM
same,Plasma Stability t1/2,"[20]; human plasma, 37° C., Table II",stable
same,recovery,"[20]; human, plasma",95%
same,"antitumor activity, PC-3","[21]; 1.0 mM, 400 μL i.p., established tumors",regression of established tumors
same,"mice surviving treatment, PC-3",[21]; in vivo,3 out of 8 mice
same,dose limiting toxicity,[22]; 300 mg/m^2 /day,peripheral neuropathy
same,tolerated taxol dose,"[22]; 24 hour i.v. infusion every 3 weeks, with G-CSF",250 mg/m^2
same,IC50,[23],0.66 nM
same,inhibition of calcium chloride induced depolymerization of microtubules,tubulin,essentially complete inhibition of depolymerization; also recorded: suppressed by taxol
same,IC50,[24],2.38 nM
